Measurements published in US10653138B2, “Composition for attracting bed bugs” (London School of Hygiene & Tropical Medicine, priority 2015, dated 2020).

Legend:
bed bug antennae = assay: Coupled gas chromatography-electroantennography (GC-EAG) of volatile extract from bed bug-exposed paper; design: species or system Cimex lectularius; settings: for Electrophysiology Auto method: bullet = marked under the Auto method; for Responses Total: males plus females, 20 insects tested; for Responses Females: number of females giving an EAG response to the peak; for Responses Females / Responses Males: volatile extract 1 μL; for Responses Males: number of males giving an EAG response to the peak; for electroantennogram (EAG) response: result in words; for Visual inspection (no of responses) >5 / Visual inspection (no of responses) >10 / Visual inspection (no of responses) >15: threshold of individuals responding; for Visual inspection (no of responses) Response: total EAG responses, Table 8
Excerpt: Experimental insects, unless otherwise stated, were mated males and females of C. lectularius that had been fed 7 to 14 days previously on heparinised sheep blood. The electrodes used to make recordings were Ag/AgCl wires (diameter 0.37 mm) inserted into glass pipettes, made from borosilicate glass capillaries (outer diameter 2.0 mm; inner diameter 1.16 mm). The glass pipettes were filled with Ringers solution (7.55 g NaCl, 0.64 g KCl, 0.22 g CaCl2, 1.73 g MgCl2 g, 0.86 g NaHCO3 and 0.61 g Na3PO4 L^−1 water). The bed bug was then chilled on ice for one minute before dissection. Preparations were held in a continuous, humidified, charcoal filtered air flow ([…]) coming from a glass tube, which was positioned 5 mm from the antennal preparation. Once the antennal preparation and EAG equipment were in position the microscope light was switched off.
The GC used was a HP-680N, containing a HP-1 column (30 m×0.32 mm; film thickness, 0.52 μm) with a COC injector, hydrogen carrier gas and a FID. The oven temperature was maintained at 40° C. for two min and then programmed at 5° C. min^−1 to 100° C. and then at 10° C. […] to 250° C. The end of the column was inserted into the centre of the main air flow so that the eluent went over the antennal preparation. […] Amplification of the signals was set at ×10,000. Signals were analysed using the computer-based software package, EAD 2000 (Syntech®, The Netherlands). The volatile extract (1 μL) from an air entrainment of bed bug-exposed papers (see Example 1) was injected onto the column. A solution of n-alkanes (C7-C25, 1 μL of 100 ng μL^−1) in hexane was also analysed to calculate the retention indices (RI) of any EAG-active peaks for comparison with GC and coupled GC-MS traces (Equation 1).
Electroantennographic (EAG) responses from the coupled gas chromatography-electroantennographic (GC-EAG) analysis of the volatile extract collected using air entrainment were determined by visual appearance. Coupled GC-EAG traces were examined visually on a light box to identify EAG responses and match them to peaks on the GC traces. A combination of characteristics including the amplitude and shape of the deflection from the baseline were used to identify EAG responses. For example, an EAG response is usually of greater amplitude than the background noise and it has a characteristic negative deflection followed by a quick positive deflection resulting in a short sharp response often of similar shape and position as the corresponding peak on the GC trace. Responses were matched between males and females separately onto master traces for each sex. The EAG-active peaks were labelled from 1 to 21. Male and female master traces were then overlaid to identify where consistent responses occurred in both sexes. Five or more individuals responding at the same retention time on the GC trace was considered to be a consistent EAG response and the corresponding peak on the GC trace was considered to be EAG-active. Three thresholds were used: greater than 5, greater than 10 or greater than 15 individuals responding to the same GC peak or at the same retention time. The traces were then subjected to manual or automated statistical analysis.

bed bugs = settings: cited from earlier work; for attraction of bed bugs to safe shelters: volatile components of aggregation pheromone

| Structure (SMILES) | Electrophysiology Auto method (bed bug antennae) | Responses Total (bed bug antennae) | Responses Females (bed bug antennae) | Responses Males (bed bug antennae) | electroantennogram (EAG) response (bed bug antennae) | Visual inspection (no of responses) >5 (bed bug antennae) | Visual inspection (no of responses) >10 (bed bug antennae) | Visual inspection (no of responses) >15 (bed bug antennae) | Visual inspection (no of responses) Response (bed bug antennae) | attraction of bed bugs to safe shelters (bed bugs) | arrestment of bed bugs (bed bugs; less-volatile component) |
| --- | --- | --- | --- | --- | --- | --- | --- | --- | --- | --- | --- |
| CCCCCCCC=O (single isomer, unassigned) [Octanal, octanal] | • | 19 | 10 | 9 | EAG-active | • (>5) | • (>10) | • (>15) | 19 | – | – |
| CCCCCC/C=C/C=O [(E)-2-Nonenal, (E)-2-nonenal] | • | 13 | 8 | 5 | EAG-active | • (>5) | • (>10) | – | 13 | – | – |
| CSSC [dimethyl disulfide] | – | – | – | – | – | – | – | – | – | attract bed bugs to safe shelters | – |
| CC/C=C/C=C/C(C)=O (single isomer, unassigned) [(3E,5E)-Octadien-2-one, (3E,5E)-octadien-2-one] | • | 13 | 5 | 8 | EAG-active | • (>5) | • (>10) | – | 13 | – | – |
| CCCCC(C)=O [2-hexanone] | – | – | – | – | – | – | – | – | – | attract bed bugs to safe shelters | – |
| CCCCOCCOCCOC(C)=O [2-(2-Butoxyethoxy)-acetate ethanol, 2-(2-butoxyethoxy)ethyl acetate] | – | 12 | 5 | 7 | EAG-active | • (>5) | • (>10) | – | 12 | – | – |
| CCCCCCC=O (single isomer, unassigned) [Heptanal, heptanal] | • | 13 | 7 | 6 | EAG-active | • (>5) | • (>10) | – | 13 | – | – |
| CCCCCCCCC(C)=O [2-Decanone, 2-decanone] | – | 9 | 4 | 5 | EAG-active | • (>5) | – | – | 9 | – | – |
| CCCCCCCC/C=C/C=O [(E)-2-Undecenal, (E)-2-undecenal] | – | 9 | 5 | 4 | EAG-active | • (>5) | – | – | 9 | – | – |
| CCCCCC=O (single isomer, unassigned) [Hexanal, hexanal] | – | 9 | 4 | 5 | EAG-active | • (>5) | – | – | 9 | – | – |
| CCCCCCCCCC=O [Decanal, decanal] | – | 12 | 5 | 7 | EAG-active | • (>5) | • (>10) | – | 12 | – | – |
| C=C1/C=C/[C@H](C(C)C)CC/C(C)=C/CC1 [(S)-(−)-Germacrene D, (S)-(−)-germacrene D] | – | 14 | 7 | 7 | EAG-active | • (>5) | • (>10) | – | 14 | – | – |
| O=Cc1ccccc1 (single isomer, unassigned) [Benzaldehyde, benzaldehyde] | – | 8 | 3 | 5 | EAG-active | • (>5) | – | – | 8 | – | – |
| CCCCCCCCCCCC [Dodecane, dodecane] | • | 16 | 8 | 8 | EAG-active | • (>5) | • (>10) | • (>15) | 16 | – | – |
| CCC/C=C/C=O [(E)-2-hexenal] | – | – | – | – | – | – | – | – | – | attract bed bugs to safe shelters | – |
| NCCc1c[nH]cn1 [histamine] | – | – | – | – | – | – | – | – | – | – | causes their arrestment upon contact |
| CCCCCCCCC(=O)O [Nonanoic acid, nonanoic acid] | – | 12 | 6 | 6 | EAG-active | • (>5) | • (>10) | – | 12 | – | – |
| C=C1C=CC(C(C)C)CC1 (single isomer, unassigned) [β-Phellandrene, β-phellandrene] | – | 11 | 6 | 5 | EAG-active | • (>5) | • (>10) | – | 11 | – | – |
| CSSSC [dimethyl trisulfide] | – | – | – | – | – | – | – | – | – | attract bed bugs to safe shelters | – |
| CC1=CCC2C(C1)C2(C)C (single isomer, unassigned) [3-Carene, 3-carene] | – | 11 | 7 | 4 | EAG-active | • (>5) | • (>10) | – | 11 | – | – |
